Assay results from US6531584B1, “2'modified oligonucleotides” (ISIS Pharmaceuticals, Inc., priority 1990, dated 2003).
“Also recorded” adds a separate entry of the source. d = 2'-deoxy (DNA); m = 2'-O-methyl

What was measured:
[1] = system: ras mRNA; experiment: Northern blot analysis of ras expression in T24 cells; assay type: cell-based, human; set-up: inhibition of ras expression / decrease of ras mRNA: concentration or dose not given beside the values; conditions: for inhibition of ras expression: T24 cells (activated codon-12); for inhibition of ras expression / decrease of ras mRNA: T24 cells, Northern blot
Method: (§1) The human urinary bladder cancer cell line T24 was obtained from the American Type Culture Collection (Rockville Md.). Cells were grown in McCoy's 5A medium with L-glutamine (GIBCO-BRL, Gaithersburg, Md.), supplemented with 10% heat-inactivated fetal calf serum and 50 U/ml each of penicillin and streptomycin. Cells were seeded on 100 mm plates. When they reached 70% confluency, they were treated with oligonucleotide. Plates were washed with 10 ml prewarmed PBS and 5 ml of OptiMEM (GIBCO) reduced-serum medium containing 2.5 μl DOTMA. Oligonucleotide was then added to the desired concentration. After 4 hours of treatment, the medium was replaced with McCoy's medium. Cells were harvested 48 hours after oligonucleotide treatment and RNA was isolated using a standard CsCl purification method. [Kingston in Current Protocols in Molecular Biology, F. M. Ausubel, R. Brent, R. E. Kingston, D. D. Moore, J. A. Smith, J. G. Seidman and K. Strahl, Eds., John Wiley and Sons, New York.] The human epithelioid carcinoma cell line HeLa 229 was obtained from the American Type Culture Collection (Bethesda, Md.). HeLa cells were maintained as monolayers on 6-well plates in Dulbecco's Modified Eagle's medium (DMEM) supplemented with 10% fetal bovine serum and 100 U/ml penicillin. Treatment with oligonucleotide and isolation of RNA were essentially as described above for T24 cells.
Northern hybridization: 10 μg of each RNA was electrophoresed on a 1.2% agarose/formaldehyde gel and transferred overnight to GeneBind 45 nylon membrane (Pharmacia LKB, Piscataway, N.J.) using standard methods. [Kingston in Current Protocols in Molecular Biology, F. M. Ausubel, R. Brent, R. E. Kingston, D. D. Moore, J. A. Smith, J. G. Seidman and K. Strahl, Eds., John Wiley and Sons, New York.] RNA was UV-crosslinked to the membrane. Double-stranded ^32P-labeled probes were synthesized using the Prime a Gene labeling kit (Promega, Madison, Wis.). The ras probe was a SalI-NheI fragment of a cDNA clone of the activated (mutant) H-ras mRNA having a GGC-to-GTC mutation at codon-12. The control probe was G3PDH. Blots were prehybridized for 15 minutes at 68° C. with the QuickHyb hybridization solution (Stratagene, La Jolla, Calif.). The heat-denatured radioactive probe (2.5×10^6 counts/2 ml hybridization solution) mixed with 100 μl of 10 mg/ml salmon sperm DNA was added and the membrane was hybridized for 1 hour at 68° C. The blots were washed twice for 15 minutes at room temperature in 2×SSC/0.1% SDS and once for 30 minutes at 60° C. with 0.1×SSC/0.1%SDS. Blots were autoradiographed and the intensity of signal was quantitated using an ImageQuant PhosphorImager (Molecular Dynamics, Sunnyvale, Calif.). Northern blots were first hybridized with the ras probe, then stripped by boiling for 15 minutes in 0.1×SSC/0.1%SDS and rehybridized with the control G3PDH probe to check for correct sample loading.

[2] = system: mutant (activated) H-ras RNA; assay type: cell-based, human
[3] = system: T24 cancer cell; experiment: Inhibition of proliferation of cancer cells; assay type: cell-based, human; conditions: 100 nM oligonucleotide concentration
Method: Cells were cultured and treated with oligonucleotide essentially as described in Example 27. Cells were seeded on 60 mm plates and were treated with oligonucleotide in the presence of DOTMA when they reached 70% confluency. Time course experiment: On day 1, cells were treated with a single dose of oligonucleotide at a final concentration of 100 nM. The growth medium was changed once on day 3 and cells were counted every day for 5 days, using a counting chamber. Dose-response experiment: Various concentrations of oligonucleotide (10, 25, 50, 100 or 250 nM) were added to the cells and cells were harvested and counted 3 days later. Oligonucleotides 2570, 3985 and 4690 were tested for effects on T24 cancer cell proliferation. EXAMPLE 29

[4] = system: ras mRNA (wild-type H-ras codon-12); experiment: Northern blot analysis of ras expression in HeLa cells; assay type: cell-based, human; conditions: HeLa cells (wild-type H-ras codon-12)
Method: as §1, with “The human epithelioid carcinoma cell line HeLa 229 was obtained from the American Type Culture Collection (Bethesda, Md.). HeLa cells were maintained as monolayers on 6-well plates in Dulbecco's Modified Eagle's medium (DMEM) supplemented with 10% fetal bovine serum and 100 U/ml penicillin. Treatment with oligonucleotide and isolation of RNA were essentially as described above for T24 cells.” left out
Northern hybridization: 10 μg of each RNA was electrophoresed on a 1.2% agarose/formaldehyde gel and transferred overnight to GeneBind 45 nylon membrane (Pharmacia LKB, Piscataway, N.J.) using standard methods. […] Blots were autoradiographed and the intensity of signal was quantitated using an ImageQuant PhosphorImager (Molecular Dynamics, Sunnyvale, Calif.). […]

[5] = system: c-raf mRNA; experiment: Northern blot analysis of c-raf mRNA expression in T24 cells; assay type: cell-based, human
Text: Chimeric oligonucleotides having SEQ ID NO:7 were designed using the Genbank c-raf sequence HUMRAFR (Genbank listing x03484), synthesized and tested for inhibition of c-raf mRNA expression in T24 bladder carcinoma cells using a Northern blot assay. These chimeric oligonucleotides have central “gap” regions of 6, 8 or 10 deoxynucleotides flanked by two regions of 2′-O-methyl modified nucleotides, and are shown in Table 10. Backbones were uniformly phosphorothioate. […] These oligonucleotides are preferred.
The human urinary bladder cancer cell line T24 was obtained from the American Type Culture Collection (Rockville, Md.). Cells were grown in McCoy's 5A medium with L-glutamine (GIBCO-BRL, Gaithersburg, Md.), supplemented with 10% heat-inactivated fetal calf serum and 50 U/ml each of penicillin and streptomycin. Cells were seeded on 100 mm plates. When they reached 70% confluency, they were treated with oligonucleotide. Plates were washed with 10 ml prewarmed PBS and 5 ml of OptiMEM reduced-serum medium containing 2.5 μl DOTMA. Oligonucleotide with lipofectin was then added to the desired concentration. After 4 hours of treatment, the medium was replaced with McCoy's medium. Cells were harvested 24 to 72 hours after oligonucleotide treatment and RNA was isolated using a standard CsCl purification method. [Kingston in Current Protocols in Molecular Biology, F. M. Ausubel, R. Brent, R. E. Kingston, D. D. Moore, J. A. Smith, J. G. Seidman and K. Strahl, Eds., John Wiley and Sons, New York.] Total RNA was isolated by centrifugation of cell lysates over a CsCl cushion. RNA samples were electrophoresed through 1.2% agarose-formaldehyde gels and transferred to hybridization. membranes by capillary diffusion over a 12-14 hour period. The RNA was cross-linked to the membrane by exposure to UV light in a Stratalinker (Stratagene, La Jolla, Calif.) and hybridized to random-primed ^32P-labeled c-raf cDNA probe (obtained from ATCC) or G3PDH probe as a control. RNA was quantitated using a Phosphorimager (Molecular Dynamics, Sunnyvale, Calif.).

[6] = system: RNA complement “Y” strand ribo(3′GAG CAU GGY AAG GCC AGG5′); experiment: Base-pair specificity: single base mismatches and bulge, thermal melting; assay type: binding; conditions: single base-pair mismatches and a bulge
Method: The ability of the 2′-modified oligonucleotides to hybridize to their complementary RNA or DNA sequences was determined by thermal melting analysis. The RNA complement was synthesized from T7 RNA polymerase and a template-promoter of DNA synthesized with an Applied Biosystems, Inc. 380B RNA species was purified by ion exchange using FPLC (LKB Pharmacia, Inc.). Natural antisense oligonucleotides or those containing 2′-modifications at specific locations were added to either the RNA or DNA complement at stoichiometric concentrations and the absorbance (260 nm) hyperchromicity upon duplex to random coil transition was monitored using a Gilford Response II spectrophotometer. These measurements were performed in a buffer of 10 mM Na-phosphate, pH 7.4, 0.1 mM EDTA, and NaCl to yield an ionic strength of 10 either 0.1 M or 1.0 M. Data was analyzed by a graphic representation of 1/Tm vs ln[Ct], where [Ct] was the total oligonucleotide concentration. From this analysis the thermodynamic parameters were determined. Based upon the information gained concerning the stability of the duplex of heteroduplex formed, the placement of modified pyrimidine into oligonucleotides were assessed for their effects on helix stability.
Base-pair specificity of 2′-deoxy-2′-fluoro modified oligonucleotides with the RNA complement (a “Y” strand) was determined by effecting single base-pair mismatches and a bulge. […]

CdCdAd CdAdCd CdGdAd CdGdGd CdGdCd CdCd [Oligonucleotide 2570, reference compound]
inhibition of ras expression [1]: inhibited ras expression in T24 cells; also recorded: decreased ras mRNA levels in T24 cells | inhibition of ras expression / decrease of ras mRNA [1]: 82% | inhibition of ras-luciferase activity [2]: dose-dependent inhibition of ras-luciferase activity | selectivity toward the mutant form of ras-luciferase as compared to the normal form [2]: approximate threefold selectivity | inhibition of T24 cell proliferation relative to inhibition of HeLa cells [3]: four times as severe | inhibition of ras expression [4]: did not inhibit ras expression in HeLa cells

TCCGTCATCGCTCCTCAGGG [Oligonucleotide 2503]
inhibition of ras expression [1]: inhibited ras expression in T24 cells | inhibition of ras expression / decrease of ras mRNA ([1]; listed as 2503): 71% | inhibition of ras expression [4]: inhibited ras expression in HeLa cells

TCCCGCCTGTGACATGCATT (2'-O-methyl P=S chimera, 8-deoxy gap, chemistry not fully specified) [ISIS 6717]
inhibition of c-raf mRNA expression [5]: greater than 90%

TCCTCCTCCCCGCGGCGGGT (2'-O-methyl P=S chimera, chemistry not fully specified) [ISIS 7848]
inhibition of c-raf mRNA expression [5]: > 70%

TTCTCCTCCTCCCCTGGCAG (sugars from the 5' end m12 d8, all phosphorothioate, T or U not given here) [ISIS 7854]
inhibition of c-raf mRNA expression [5]: > 70%

TTCTCGCCCGCTCCTCCTCC (2'-O-methyl P=S chimera, chemistry not fully specified) [ISIS 7856]
inhibition of c-raf mRNA expression [5]: > 70%

deoxy(CUC GUACCUUUCCGG UCC) (CUCGUACCUUUCCGGUCC; 14 2'-deoxy-2'-fluoro nucleotides, chemistry not fully specified)
specificity of duplex formation with the RNA complement [6]: greater specificity than a like-sequenced unmodified oligonucleotide
